According to PubChem BioAssay (NCI):
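Five concentrations, 48 hours, 96-well plates. Definition used: TGI = concentration required for complete inhibition of growth.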

What was measured:
Test in all cases: NCI anticancer screen, dose series, 48 h
SK-MEL-5 melanoma = tested on: SK-MEL-5 melanoma
U251 CNS = tested on: U251 CNS
CAKI-1 renal = tested on: CAKI-1 renal
ACHN renal = tested on: ACHN renal
DU-145 prostate = tested on: DU-145 prostate
HCT-116 colon = tested on: HCT-116 colon
SN12C renal = tested on: SN12C renal
OVCAR-3 ovarian = tested on: OVCAR-3 ovarian
SNB-75 CNS = tested on: SNB-75 CNS
HCT-15 colon = tested on: HCT-15 colon
T-47D breast = tested on: T-47D breast
A549 NSCLC = tested on: A549 NSCLC
HT29 colon = tested on: HT29 colon
KM12 colon = tested on: KM12 colon
LOX IMVI melanoma = tested on: LOX IMVI melanoma
HOP-92 NSCLC = tested on: HOP-92 NSCLC
MDA-N = tested on: MDA-N
HOP-62 NSCLC = tested on: HOP-62 NSCLC
NCI-H460 lung = tested on: NCI-H460 lung
MDA-MB-231 breast = tested on: MDA-MB-231 breast
BT-549 breast = tested on: BT-549 breast
MCF7 breast = tested on: MCF7 breast
CCRF-CEM leukemia = tested on: CCRF-CEM leukemia
SW-620 colon = tested on: SW-620 colon
RXF 393 renal = tested on: RXF 393 renal
NCI-H522 lung = tested on: NCI-H522 lung
UO-31 renal = tested on: UO-31 renal
COLO 205 colon = tested on: COLO 205 colon
EKVX NSCLC = tested on: EKVX NSCLC
SF-295 CNS = tested on: SF-295 CNS
TK-10 renal = tested on: TK-10 renal
NCI-H23 lung = tested on: NCI-H23 lung
A498 renal = tested on: A498 renal
SK-MEL-2 melanoma = tested on: SK-MEL-2 melanoma
UACC-62 melanoma = tested on: UACC-62 melanoma
OVCAR-5 ovarian = tested on: OVCAR-5 ovarian
M14 melanoma = tested on: M14 melanoma
K-562 leukemia = tested on: K-562 leukemia
SK-OV-3 ovarian = tested on: SK-OV-3 ovarian
UACC-257 melanoma = tested on: UACC-257 melanoma
786-0 renal = tested on: 786-0 renal
IGROV1 ovarian = tested on: IGROV1 ovarian
SR leukemia = tested on: SR leukemia
HCC-2998 colon = tested on: HCC-2998 colon
HS 578T breast = tested on: HS 578T breast
SF-268 CNS = tested on: SF-268 CNS
NCI/ADR-RES ovarian = tested on: NCI/ADR-RES ovarian
SNB-19 CNS = tested on: SNB-19 CNS
MALME-3M melanoma = tested on: MALME-3M melanoma
SK-MEL-28 melanoma = tested on: SK-MEL-28 melanoma
PC-3 prostate = tested on: PC-3 prostate
OVCAR-8 ovarian = tested on: OVCAR-8 ovarian
MOLT-4 leukemia = tested on: MOLT-4 leukemia
MDA-MB-435 = tested on: MDA-MB-435
NCI-H226 lung = tested on: NCI-H226 lung
OVCAR-4 ovarian = tested on: OVCAR-4 ovarian

Measured: TGI

CCCCCCCCC/C=C1/CC(CO)(COC(=O)C2CCCCC2)OC1=O (stereo unspecified)
> 100 µM: all assays above
